Drawing on ChEMBL document CHEMBL3600327, “Synthesis of a novel series of fluoroarene derivatives of artemisinin as potent antifungal and anticancer agent” (Bioorg Med Chem Lett, 2015), this text covers inhibition of growth and IC50 for twelve compounds.

In assay [1] the test system is Fusarium oxysporum. As to the kind of experiment: Antifungal activity against Fusarium oxysporum assessed as inhibition of mycelia growth at 200 ppm after 1 week by filter paper method relative to control. As to conditions: 168 h, read-out: GI. Type of assay: functional.
The subject of assay [2] is Fusarium oxysporum. As to the kind of experiment: Antifungal activity against Fusarium oxysporum assessed as inhibition of mycelia growth at 800 ppm after 1 week by filter paper method relative to control. The note with it: 168 h, read-out: GI. It is filed as functional.
Assay [3] has as its system Fusarium oxysporum. As to the kind of experiment: Antifungal activity against Fusarium oxysporum assessed as inhibition of mycelia growth at 400 ppm after 1 week by filter paper method relative to control. It is filed as functional. The note with it: 168 h, read-out: GI.
The test system of assay [4] is Fusarium oxysporum. In words: Antifungal activity against Fusarium oxysporum assessed as inhibition of mycelia growth at 1000 ppm after 1 week by filter paper method relative to control. The note with it: 168 h, read-out: GI. Type of assay: functional.
Assay [5] relates to Fusarium oxysporum. In words: Antifungal activity against Fusarium oxysporum assessed as inhibition of mycelia growth at 600 ppm after 1 week by filter paper method relative to control. As to conditions: 168 h, read-out: GI. It is filed as functional.
The subject of another assay is HeLa. As to the kind of experiment: Cytotoxicity against human HeLa cells measured at 48 hrs by MTT assay. It is filed as functional, cell-based.

Take `C#CCO[C@H]1O[C@@H]2O[C@@]3(C)CC[C@H]4[C@H](C)CC[C@@H]([C@H]1C)[C@@]24OO3`: the inhibition of growth at 200 ppm in the assay with Fusarium oxysporum [1] turned out to be 64.8%. In the assay with Fusarium oxysporum [2], the inhibition of growth at 800 ppm is 70.2%. Also, the inhibition of growth at 400 ppm with Fusarium oxysporum [3] stood at 66.4%. In the assay on Fusarium oxysporum [4], the inhibition of growth at 1000 ppm stood at 72%. Besides, the inhibition of growth at 600 ppm with Fusarium oxysporum [5] was 68.8%.
For `C#CCCO[C@H]1O[C@@H]2O[C@@]3(C)CC[C@H]4[C@H](C)CC[C@@H]([C@H]1C)[C@@]24OO3` the same measures were 70%, 76.8%, 73.2%, 77.6% and 75.4%.
Consider `C[C@H]1[C@@H](OCCC#Cc2ccc(-c3ccc(F)cc3)cc2)O[C@@H]2O[C@@]3(C)CC[C@H]4[C@H](C)CC[C@@H]1[C@@]24OO3`, for which the inhibition of growth at 200 ppm with Fusarium oxysporum [1] was 67%. Besides, it took 13.1 µM to reach half-maximal inhibition with HeLa (IC50). The inhibition of growth at 800 ppm with Fusarium oxysporum [2] came to 71%. The inhibition of growth at 400 ppm with Fusarium oxysporum [3] came out at 67.9%. In the assay on Fusarium oxysporum [4], the inhibition of growth at 1000 ppm was determined as 72.8%. For the same compound, in the assay with Fusarium oxysporum [5], the inhibition of growth at 600 ppm is 70.2%.
As for `C[C@H]1[C@@H](OCCC#Cc2ccc(-c3cccc(C(F)(F)F)c3)cc2)O[C@@H]2O[C@@]3(C)CC[C@H]4[C@H](C)CC[C@@H]1[C@@]24OO3`, the inhibition of growth at 200 ppm in the assay on Fusarium oxysporum [1] stood at 65.6%. The inhibition of growth at 800 ppm in the assay on Fusarium oxysporum [2] was 69%. For the same compound, in the assay on Fusarium oxysporum [3], the inhibition of growth at 400 ppm was 66.5%. The inhibition of growth at 1000 ppm in the assay with Fusarium oxysporum [4] is 70.2%. In addition, the inhibition of growth at 600 ppm in the assay with Fusarium oxysporum [5] came out at 67.6%.
For the compound `C[C@H]1[C@@H](OCCC#Cc2ccc(-c3ccc(F)cc3)s2)O[C@@H]2O[C@@]3(C)CC[C@H]4[C@H](C)CC[C@@H]1[C@@]24OO3`, the inhibition of growth at 200 ppm with Fusarium oxysporum [1] turned out to be 66.4%. Besides, the IC50 in the assay with HeLa worked out at 36.6 µM. For the same compound, the inhibition of growth at 800 ppm in the assay with Fusarium oxysporum [2] came out at 69.9%. Besides, in the assay with Fusarium oxysporum [3], the inhibition of growth at 400 ppm is 66.9%. Besides, the inhibition of growth at 1000 ppm in the assay with Fusarium oxysporum [4] amounted to 71%. The inhibition of growth at 600 ppm in the assay with Fusarium oxysporum [5] turned out to be 68%.
As for `C[C@H]1[C@@H](OCCC#Cc2cccc(-c3ccc(F)cc3)c2)O[C@@H]2O[C@@]3(C)CC[C@H]4[C@H](C)CC[C@@H]1[C@@]24OO3`, in the assay with Fusarium oxysporum [1], the inhibition of growth at 200 ppm came out at 64%. The same compound displayed an IC50 with HeLa of 112 µM. Besides, the inhibition of growth at 800 ppm in the assay on Fusarium oxysporum [2] worked out at 68%. In addition, in the assay on Fusarium oxysporum [3], the inhibition of growth at 400 ppm is 65.2%. For the same compound, the inhibition of growth at 1000 ppm with Fusarium oxysporum [4] is 69.8%. The inhibition of growth at 600 ppm in the assay on Fusarium oxysporum [5] is 66.4%.
On to `C[C@H]1[C@@H](OCC#Cc2ccc(F)cc2)O[C@@H]2O[C@@]3(C)CC[C@H]4[C@H](C)CC[C@@H]1[C@@]24OO3`, for which the inhibition of growth at 200 ppm with Fusarium oxysporum [1] stood at 53.5%. In the assay on HeLa, the IC50 was 26.3 µM. Besides, the inhibition of growth at 800 ppm in the assay with Fusarium oxysporum [2] was 57.6%. Also, the inhibition of growth at 400 ppm in the assay with Fusarium oxysporum [3] worked out at 54.4%. Also, the inhibition of growth at 1000 ppm with Fusarium oxysporum [4] stood at 59%. For the same compound, the inhibition of growth at 600 ppm with Fusarium oxysporum [5] amounted to 56%.
Consider `C[C@H]1[C@@H](OCC#Cc2cccc(F)c2)O[C@@H]2O[C@@]3(C)CC[C@H]4[C@H](C)CC[C@@H]1[C@@]24OO3`, for which, in the assay on Fusarium oxysporum [1], the inhibition of growth at 200 ppm is 60%. Besides, half-maximal inhibition in the assay with HeLa (IC50) was put at 14 µM. Also, in the assay with Fusarium oxysporum [2], the inhibition of growth at 800 ppm turned out to be 64%. For the same compound, the inhibition of growth at 400 ppm with Fusarium oxysporum [3] stood at 61.8%. The inhibition of growth at 1000 ppm in the assay on Fusarium oxysporum [4] was 65.2%. Also, the inhibition of growth at 600 ppm in the assay on Fusarium oxysporum [5] amounted to 62%.
Regarding `C[C@H]1[C@@H](OCC#Cc2ccccc2F)O[C@@H]2O[C@@]3(C)CC[C@H]4[C@H](C)CC[C@@H]1[C@@]24OO3`, the inhibition of growth at 200 ppm in the assay on Fusarium oxysporum [1] came out at 53.6%. It took 139 µM to reach half-maximal inhibition in the assay with HeLa (IC50). Besides, the inhibition of growth at 800 ppm with Fusarium oxysporum [2] came to 56.8%. In the assay on Fusarium oxysporum [3], the inhibition of growth at 400 ppm was 54.2%. The inhibition of growth at 1000 ppm with Fusarium oxysporum [4] is 57.6%. Further, the inhibition of growth at 600 ppm in the assay with Fusarium oxysporum [5] was found to be 55.2%.
As to `C[C@H]1[C@@H](OCCC#Cc2ccc(F)nc2)O[C@@H]2O[C@@]3(C)CC[C@H]4[C@H](C)CC[C@@H]1[C@@]24OO3`, in the assay on Fusarium oxysporum [1], the inhibition of growth at 200 ppm was 62.4%. The IC50 in the assay on HeLa is 20.9 µM. The inhibition of growth at 800 ppm in the assay with Fusarium oxysporum [2] is 66.4%. Further, the inhibition of growth at 400 ppm with Fusarium oxysporum [3] amounted to 63.9%. For the same compound, in the assay on Fusarium oxysporum [4], the inhibition of growth at 1000 ppm was 67.8%. The inhibition of growth at 600 ppm with Fusarium oxysporum [5] came out at 65%.
In the case of `C[C@H]1[C@@H](OCC#Cc2ccc(F)nc2)O[C@@H]2O[C@@]3(C)CC[C@H]4[C@H](C)CC[C@@H]1[C@@]24OO3`, the inhibition of growth at 200 ppm in the assay on Fusarium oxysporum [1] was 56.4%. Further, the inhibition of growth at 800 ppm in the assay with Fusarium oxysporum [2] was 62.5%. Moreover, in the assay with Fusarium oxysporum [3], the inhibition of growth at 400 ppm was 58.4%. In addition, the inhibition of growth at 1000 ppm with Fusarium oxysporum [4] worked out at 63.8%. Also, the inhibition of growth at 600 ppm in the assay on Fusarium oxysporum [5] was 61%.
With `C[C@@H]1CC[C@H]2[C@@H](C)C(=O)O[C@@H]3O[C@@]4(C)CC[C@@H]1[C@]32OO4` [ARTEMISININ], the inhibition of growth at 200 ppm in the assay with Fusarium oxysporum [1] was 72%. In the assay with HeLa, this compound came in with an IC50 of 493 µM. Moreover, the inhibition of growth at 800 ppm in the assay on Fusarium oxysporum [2] amounted to 77.2%. In addition, the inhibition of growth at 400 ppm in the assay with Fusarium oxysporum [3] came out at 75.5%. The inhibition of growth at 1000 ppm with Fusarium oxysporum [4] stood at 78.5%. Moreover, in the assay on Fusarium oxysporum [5], the inhibition of growth at 600 ppm amounted to 76%.
